Test results reported in patent publication US5614548A, “Quaternary amine containing ether or ester lipid derivatives and therapeutic compositions” (priority 1994, dated 1997).

Key:
P388 cells = test: Cytostatic activity on P388 cells; assay type: cell-based; details: Mus musculus
Protocol: (§1) All cells were grown in Eagle's minimum essential medium supplemented with 10% fetal bovine serum with the exception of HL-60 and K562-4 cells which were grown in RPMI 1640 medium supplemented with 10% fetal bovine serum. The KB and MH1 C1 cells, from a human nasopharyngeal carcinoma and rat hepatoma, respectively, were from American Type Culture Collection. The ChaGo cells, a human lung carcinoma, was generously provided by Dr. A. H. Tashjian. The human promyeloblastic leukemia cells, K562-4 were kindly supplied by Dr. Bismarck Lozzio. HL-60 cells, a human promyelocytic leukemia, and P388 cells, a mouse leukemia, were obtained from Dr. Y.-C. Cheng. The 77 cells were put into culture by us by excising the 7777, Morris hepatoma from a rat graciously supplied by the late Dr. H. P. Morris.
(§2) Cells were transferred or removed from monolayers for counting after a one or two minute incubation with 0.02% sodium ethylenediamine tetraacetate in phosphate-buffered saline to dislodge the cells. Flasks were seeded at a density of 1×10^3 cells per cm^2 or 2×10^4 per milliliter for suspension cultures. The HL-60 and K562-4 suspension cultures were used about 24 hours after seeding. […] Control cell replication was followed until approximately three doublings had occurred, and then all of the treated cells were counted.

ChaGo cells = test: Cytostatic activity on ChaGo cells; assay type: cell-based, human; details: Homo sapiens
Protocol: as §1
(§3) Cells were transferred or removed from monolayers for counting after a one or two minute incubation with 0.02% sodium ethylenediamine tetraacetate in phosphate-buffered saline to dislodge the cells. Flasks were seeded at a density of 1×10^3 cells per cm^2 or 2×10^4 per milliliter for suspension cultures. The HL-60 and K562-4 suspension cultures were used about 24 hours after seeding. The compounds to be tested were diluted to various concentrations and added to the monolayer cultures. All of the test compounds were dissolved in 10% dimethyl sulfoxide (DMSO) at concentrations that would give a final DMSO concentration of 0.1%. Control flasks contained 0.1% DMSO. Control cell replication was followed until approximately three doublings had occurred, and then all of the treated cells were counted.

77 cells = test: Cytostatic activity on 77 cells; assay type: cell-based, rat; details: for IC50: 77 cells, after controls doubled three times; for 77/KB: ratio of IC50 values ± standard error of the quotient
Protocol: as §1, §3
(§4) The KB cells represented cells with low alkyl cleavage activity (less than the detectable level of 0.1-0.2 units per milligram protein by our assay procedure) and the 77 cells represented cells similar to normal cells with relatively high alkyl cleavage activity (1.6 units per milligram of protein). Our value for the cleavage activity of cultured 77 cells agrees well with the value of 1.4 units per milligram of protein reported by Soodsma et al, Cancer Res. 30, 309 (1970), for freshly excised 7777 Morris hepatoma tissue. In further confirmation of our assay procedure, we obtained a value of 12.6±4.1 units per milligram of protein in excised rat liver compared to 7.3 units per milligram of protein in rat liver measured by Soodsma et al.

MH1 C1 cells = test: Cytostatic activity on MH1 C1 cells; assay type: cell-based, rat
Protocol: as §1, §3

KB cells [1] = test: Cytostatic activity on KB cells; assay type: cell-based; details: Homo sapiens; KB cells, after controls doubled three times; read-out: IC50 KB
Protocol: as §1, §3, §4

KB cells [2] = test: Synergism with vincristine on KB cell number; assay type: cell-based, human
Protocol: as §1, §3
For example, 1 μM VIII reduced cell number to 45% of control and 0.004 μg per milliliter vincristine caused a reduction to 27% of control. Thus, the two agents together should have reduced cell number to 12% of control if they acted additively.

K562-4 cells = test: Cytostatic activity on K562-4 cells; assay type: cell-based; details: Homo sapiens; K562-4 (printed X562-4)
Protocol: as §1, §3

extracellular HIV-1 = test: Direct inactivation of extracellular HIV-1 infectivity; assay type: cell-based, human immunodeficiency virus type 1 (HIV-1)
Protocol: Since ether lipid (EL) analogs are membrane interactive, see, e.g. , A. Noseda et al., Biochim. Biophys. Acta 945, 92 (1988), we determined whether Compound E could directly inactivate extracellular HIV-1 infectivity. About 350 plaque forming units of HIV-1 were mixed with antiviral concentrations (2.0 μM) of E or with control medium alone in a total volume of 100 μl. After three hours of incubation at 37° C., the virus compound and virus medium mixtures were diluted 20-fold to reduce the concentration of Compound E below a significant antiviral concentration. Aliquots (100 μl) of the diluted HIV-1 were added to CEM-SS cell monolayers to measure residual virus infectivity by plaque count. A mean of 22 plaques (N=2) were counted for Compound E-treated HIV-1 and a mean of 27 plaques (N=2) for medium-treated HIV-1.

HIV-1 [3] = test: HIV-1 plaque assay, inhibitor added 30 minutes before infection; assay type: cell-based, human immunodeficiency virus type 1 (HIV-1); details: for Inhibition (%): HIV-1 plaque formation, Table 5
Description: Dextran sulfate was used as a positive control. […] Plaques were counted at five days after infection.
(§5) By way of further background, in our assay HIV-1 syncytial plaques are seen as large, multicellular foci (10 to 25 nuclei/syncytium) that appear either brown and granular or clear. Since the number of HIV-1 syncytial plaques correlates with reverse transcriptase (RT) and p24 core antigen activity in the HIV-1 infected cell overlay fluids, the syncytial plaque assay can be used to quantify the amount of infectious virus. Reverse transcriptase activity was assayed according to a described procedure (B. J. Poeisz et al., Proc. Natl. Acad. Sci. (U.S.A.) […], 7415 (1980)). The activity of p24 core antigen induced by HIV-1 infection of CEM-SS cells was measured spectrophotometrically using the commercial Abbott EIA.
Compound E inhibited HIV-1 plaque count 43%, 83%, and 91% at concentrations of 0.2, 0.4, and 2.0 μM, respectively, compared to untreated controls. […] In other experiments addition of 0.2, 0.4 and 2.0 μM Compound E starting sixty minutes after HIV-1 infection inhibited HIV-1 plaque formation 28%, 59% and 97% respectively, compared to untreated controls.

HIV-1 [4] = test: Infectious HIV-1 multiplication (plaque forming units); assay type: cell-based, human immunodeficiency virus type 1 (HIV-1); details: in words
Protocol: (§6) In brief, CEM-SS cells were infected with HIV-1. At various times after infection (3, 6, 8, 10, 13 days) the overlay fluids were replaced with fresh medium. Overlay fluids replaced on days 8, 10 and 13 were saved at -80° C. to measure HIV-1 plaque forming units according to our described protocol above and RT activity (described by Poiesz et al., Proc. Natl. Acad. Sci. U.S.A. 77, 7415 (1980). Results are given in Table 8 below.

extracellular HSV-2 = test: Direct inactivation of extracellular HSV-2 infectivity; assay type: cell-based, herpes simplex virus type 2 (HSV-2); details: 2 μM, in words
reverse transcriptase = test: Reverse transcriptase activity in HIV-1 infected CEM-SS cells; assay type: cell-based, human immunodeficiency virus type 1 (HIV-1); details: in words
Protocol: as §5, §6

[5] = tested on: herpes simplex virus type 2 (HSV-2); test: HSV-2 plaque formation in Vero cell monolayers; assay type: cell-based; details: 2 μM, in words
[6] = tested on: HIV-1 binding to target T-cells; details: in words; cited from earlier work
[7] = tested on: P388 mouse leukemia cells; test: In vivo anti-tumor activity, P388 mouse leukemia; parameters: species or system mouse (BDF1 female mice); details: for increased survival: days 1, 5, and 9
Description: P388 mouse leukemia cells were transplanted by intraperitoneal injection of 1×10^6 cells into BDF1 female mice on day 0. Treatments were begun on day 1. Control mice received the vehicle for the test compounds. […]

HL-60 cells = test: Cytostatic activity on HL-60 cells; assay type: cell-based; details: Homo sapiens
Protocol: as §1, §2

With `CCCCCCCCCCCCCCCCCCOCC[N+](C)(C)CCO.[I-]` [VIII, 2-octadecyloxy-N,N-dimethyl-N-β-hydroxyethyl-1-ethyl ammonium iodide] the IC50 (P388 cells) was 0.42 µM, the IC50 (ChaGo cells) was 1 µM and the IC50 (77 cells) was 1.8 ± 0.81 µM. For the same compound, the 77/KB (77 cells) was 5.8 ± 3.8, the IC50 (MH1 C1 cells; MH1 C1) was 7.7 µM and the “sensitivity of MH1 C1 cells relative to 77 cells” value (MH1 C1 cells; MH1 C1 vs 77 cells) was “two to three times less sensitive to growth inhibition than 77 cells”. It also gave an IC50 (MH1 C1 cells; Rattus norvegicus, MH1C1, MH1 C1) of 6.4 µM, an IC50 (KB cells [1]) of 0.3 ± 0.14 µM and an activity at 1 µM (KB cells [2]; Homo sapiens, 1 μM VIII, read-out: cell number, % of control) of 45%. The synergism with vincristine (KB cells [2]; in words) was “acted synergistically with vincristine against KB cells” and the IC50 (K562-4 cells) was 1.9 µM.

In the case of `CCCCCCCCCCCCCCCCSCC(C[N+](C)(C)CCO)OC.[I-]` (racemic) [Compound 12, (±)-3-hexadecylthio-2-methoxy-N,N-dimethyl-N-β-hydroxyethyl-1-propyl ammonium iodide], the “inactivation of extracellular HIV-1 infectivity” value (extracellular HIV-1; 2.0 μM, in words) is reported as “does not inactivate extracellular HIV-1 infectivity”, the mean residual plaques (extracellular HIV-1; HIV-1 treated 2.0 μM, 3 hours, 37° C., diluted 20-fold, N=2 (medium: 27 plaques)) is reported as 22 plaques and the “selectivity against HIV-1 plaque formation” value (HIV-1 [3]; vs HSV-2, in words) is reported as “selective inhibitory activity against HIV-1 plaque formation”. The infectious virus production (HIV-1 [4]; 13 days) was “infectious virus production is still inhibited”, the infectious virus production (HIV-1 [4]; between 8 and 10 days) was “markedly inhibit infectious virus production” and the “inactivation of extracellular HSV-2 infectivity” value (extracellular HSV-2) was “nor directly inactivates extracellular HSV-2 infectivity”. The reverse transcriptase activity (reverse transcriptase; 13 days) was “reverse transcriptase activity increases”, the reverse transcriptase activity (reverse transcriptase; between 8 and 10 days) was “markedly inhibit infectious virus production and reverse transcriptase activity in a dose-dependent manner” and the “inhibition of HSV-2 plaque formation” value [5] was “neither inhibits herpes simplex virus type 2 (HSV-2) plaque formation in Vero cell monolayers”.

With Dextran Sulfate [reference compound] the “Inhibition (%)” value (HIV-1 [3]; 1 μM) was 91%, the “Inhibition (%)” value (HIV-1 [3]; 1 μM, listed as dextran sulfate) was 92% and the “Inhibition (%)” value (HIV-1 [3]; 2 μM) was 100%. The “Inhibition (%)” value (HIV-1 [3]; 10 μM) was 100% and the “inhibition of HIV-1 binding to target T-cells” value [6] was “a known inhibitor of HIV-1 binding to target T-cells”.

`CCCCCCCCCCCCCCCCOCC[N+](C)(C)CCCO.[I-]` [VI, 2-hexadecyloxy-N,N-dimethyl-N-gamma-hydroxypropyl-1-ethyl ammonium iodide] showed an IC50 (77 cells) of 2.05 ± 0.91 µM, a 77/KB (77 cells) of 8.9 ± 4.79 and an increased survival ([7]; 50 mg/kg) of 26%. The reduced survival ([7]; 75 mg/kg on days 1 and 2) was 48%, the increased survival ([7]; 75 mg/kg) was 48% and the “in vivo activity against P388” value ([7]; in words) was “appeared to have in vivo activity against P388”. The survival time ([7]; one 50 mg/kg dose on day 1) was “did not affect survival time”, the lethality ([7]; single 100 mg/kg dose on day 1) was “killed all the mice by day 2” and the IC50 (HL-60 cells) was 0.45 ± 0.011 µM. It also gave an IC50 (KB cells [1]) of 0.23 ± 0.07 µM and an IC50 (K562-4 cells) of 2.2 ± 0.41 µM.

In the case of `CC[C@]1(O)C[C@H]2CN(CCc3c([nH]c4ccccc34)[C@@](C(=O)OC)(c3cc4c(cc3OC)N(C=O)[C@H]3[C@@](O)(C(=O)OC)[C@H](OC(C)=O)[C@]5(CC)C=CCN6CC[C@]43[C@@H]65)C2)C1` [vincristine, reference compound], the “cell number, % of control” value (KB cells [2]; 0.004 μg per milliliter vincristine) is reported as 27%.
